Where two headings read alike, the source gives them in different places.
What was measured:
[1] = tested on: spontaneously hypertensive rats; test: Effect on spontaneously hypertensive rats (blood pressure, heart rate, body weight); format: in vivo; settings: for antihypertensive effect: separate experiment (not illustrated)
Protocol: Male spontaneously hypertensive rats (hereinafter referred to as SHR, weighing about 190 g) eight weeks old were used in groups of 5 animals. Platonin was orally adminstered at a dose of 1 µg/kg three times a week for 13 weeks. A physiological saline alone was adminstered to a control group in the same manner as above. During the administration period, blood pressure, heart rate and body weight were measured at timed intervals.
Blood pressure, systolic, was bloodlessly measured in the caudal artery using a rat blood pressure manometer (made by Narco Biosystems Co.), and heart rate using a polygraph (made by Nippon Kohden Kabushiki Kaisha).

[2] = tested on: normal rats (Wistar-Kyoto); test: Effect on blood pressure in normal rats (also heart rate, body weight); format: in vivo
Protocol: Male Wistar-Kyoto rats eight weeks old (weighing about 190 g) were used in groups of 5 animals. Platonin was orally administered at a dose of 1 µg/kg three times a week for 8 weeks. A physiological saline alone was administered to a control group in the same manner as above. During the administration period, blood pressure, heart rate and body weight were measured at timed intervals. Blood pressure, systolic, was bloodlessly measured in the caudal artery using a rat blood pressure manometer (made by Narco Biosystems Co.), and heart rate using a polygraph (made by Nippon Kohden Kabushiki Kaisha).

Acute toxicity = settings: rat, in vivo, male Wistar rats, suspended in 5 % gum arabic, observed 7 days, method of Van der Warden
Protocol: Eight male Wistar rats (weighing about 150 g) per group were used. Platonin suspended in 5 % gum arabic was administered intraperitonealy, or orally using a gastric tube. […] The LD50 value was calculated by the method of Van der Warden.

[3] = normal rats, in comparison with the control group

For `CCCCCCCN1C(C)=CS\C1=C/C=C(/C=C/c1scc(C)[n+]1CCCCCCC)c1scc(C)[n+]1CCCCCCC`, which acute hypotensive effect ([1]; SHR, also at a higher dose, time for the antihypertensive effect to be revealed was the same) is on record?
Its acute hypotensive effect is “any acute hypotensive effect was not found”.

What about the Body weight change ([1]; SHR, oral, 1 µg/kg three times a week, Fig. 2) of the same compound?
Its Body weight change is “no influence on body weight gain”.

And the “Effect on heart rate” value ([1]; SHR, oral, 1 µg/kg three times a week, any time point during administration, compared with control group)?
Its value is “any significant change in heart rate was not observed”.

And the Body weight change ([1]; SHR, oral, 1 to 100 ug/kg three times a week (not illustrated))?
The Body weight change was “no effect on body weight”.

What about the antihypertensive effect ([1]; SHR, after about 4 weeks of administration) of the same compound?
The antihypertensive effect was “significant decrease in blood pressure”.

And the antihypertensive effect ([1]; SHR, till the 3rd week of administration)?
Its antihypertensive effect is “no effect at all”.

And the “Effect on blood pressure” value ([1]; male SHR, oral, 1 ug/kg three times a week for 13 weeks, systolic, caudal artery, each measurement time point after 5 weeks, Fig. 1)?
The value was “remarkable blood pressure fall”.

And the “Effect on blood pressure in normal rats” value ([2]; male Wistar-Kyoto rats, oral, 1 µg/kg three times a week for 8 weeks, Fig. 3)?
Its value is “no influence on blood pressure”.

And the “Effect on blood pressure in normal rats” value ([2]; normal rats, dose range of 1 to 100 µg/kg)?
The value was “no change in blood pressure”.

What about the body weight [2, 3] of the same compound?
Its body weight is “no significant changes”.

And the heart rate [2, 3]?
Its heart rate is “no significant changes”.

And the LD50 at 168 h (Acute toxicity; ip, intraperitoneal, read-out: intraperitoneal LD50 value)?
The LD50 at 168 h was 54 mg/kg.

And the LD50 at 168 h (Acute toxicity; oral by gastric tube, read-out: oral LD50 value)?
Its LD50 at 168 h is 1500 mg/kg.
